How the values were obtained:
KRAS G12C = KRAS G12C (Homo sapiens (Human), UniProt P01116, C118A/G12C); assay: 2 h coupled exchange assay; assay type: biochemical; conditions: Avg 2 h Coupled exchange IC50, 2 h compound pre-incubation
Method: The term “2 h coupled exchange assay” or “20 h coupled exchange assay” as used herein refers to the assay described in the Section entitled “BIOLOGICAL EVALUATION.”

[1] = tested on: MIA PaCa-2 (human pancreatic carcinoma) cells; assay: Cell Viability Assay (CellTiter-Glo), MIA PaCa-2; assay type: cell-based; conditions: Homo sapiens, MIA PaCa-2, 72 h
Method: Serially-diluted compound or DMSO was added to the cells, and plates were incubated at 37° C., 5% CO2 for 72 h. Cell viability was measured using a CellTiter-Glo® Luminescent Cell Viability Assay kit (Promega) according to the manufacturer's protocol. The luminescence signal of treated samples was normalized to DMSO control, and data were analyzed using a 4-parameter logistic model to calculate IC50 values.

[2] = tested on: A549 (human lung carcinoma) cells; assay: Cell Viability Assay (CellTiter-Glo), A549; assay type: cell-based; conditions: Homo sapiens, A549, 72 h
Summary of the method: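 Seeding at 1.67E+04 cells/mL is followed by overnight attachment at 37° C., 5% CO2. Serially diluted compound is added for 72 h. Viability is read by CellTiter-Glo luminescence, scaled to DMSO and fitted (4-parameter logistic) to give IC50.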

Sequence of KRAS G12C (P01116 other isoform, or with tags, fused parts or gaps G12C/C118A): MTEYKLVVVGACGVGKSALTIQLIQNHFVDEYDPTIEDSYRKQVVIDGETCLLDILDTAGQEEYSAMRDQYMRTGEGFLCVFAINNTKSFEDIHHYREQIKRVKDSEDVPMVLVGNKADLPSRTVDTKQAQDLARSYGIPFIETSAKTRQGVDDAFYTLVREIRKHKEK

| SMILES | IC50 (KRAS G12C) [nM] | IC50 [1] [nM] | IC50 [2] [µM] |
| --- | --- | --- | --- |
| C=CC(=O)N1CC2(CCN(c3nc4c(c(-c5ccc(F)cc5F)c3C#N)CCN(c3ccc(OC)cc3)C4)C2)C1 [Example 21-7, 4-(2,4-difluorophenyl)-7-(4-methoxyphenyl)-2-(2-(2-propenoyl)-2,6-diazaspiro[3.4]octan-6-yl)-5,6,7,8-tetrahydro-1,7-naphthyridine-3-carbonitrile] | 94 | 749 | 6.02 |
| C=CC(=O)N1CC2(CCN(c3nc4c(c(-c5cc(O)ccc5F)c3C#N)CC3CCC4N3C(C)C)C2)C1 (stereo not drawn) [Example 21-8] | 933 | 5560 | > 25 |
| C=CC(=O)N1CC2(CCN(c3nc4c(c(-c5ncccc5F)c3C#N)CCN(c3scnc3C)C4)C2)C1 [Example 21-10, 4-(3-fluoro-2-pyridinyl)-7-(4-methyl-1,3-thiazol-5-yl)-2-(2-(2-propenoyl)-2,6-diazaspiro[3.4]octan-6-yl)-5,6,7,8-tetrahydro-1,7-naphthyridine-3-carbonitrile] | 189 | 716 | > 5 |
| C=CC(=O)N1CC2(CCN(c3nc4c(c(-c5cccc(F)c5O)c3C#N)CCN(c3scnc3C)C4)C2)C1 [Example 21-14, 4-(3-fluoro-2-hydroxyphenyl)-7-(4-methyl-1,3-thiazol-5-yl)-2-(2-(2-propenoyl)-2,6-diazaspiro[3.4]octan-6-yl)-5,6,7,8-tetrahydro-1,7-naphthyridine-3-carbonitrile] | 35 | > 5000 | > 5 |
| C=CC(=O)N1CC2(CCN(c3nc4c(c(-c5ccc(F)cc5F)c3C#N)CCN(c3scnc3C)C4)[C@H]2C)C1 [Example 21-16, 4-(2,4-difluorophenyl)-2-((5S)-5-methyl-2-(2-propenoyl)-2,6-diazaspiro[3.4]octan-6-yl)-7-(4-methyl-1,3-thiazol-5-yl)-5,6,7,8-tetrahydro-1,7-naphthyridine-3-carbonitrile] | 108 | 931 | 5.11 |
| C=CC(=O)N1CC2(CCN(c3nc4c(c(-c5ccc(F)cc5F)c3C#N)CCN(c3scnc3C)C4)[C@@H]2C)C1 [Example 21-17, 4-(2,4-difluorophenyl)-2-((5R)-5-methyl-2-(2-propenoyl)-2,6-diazaspiro[3.4]octan-6-yl)-7-(4-methyl-1,3-thiazol-5-yl)-5,6,7,8-tetrahydro-1,7-naphthyridine-3-carbonitrile] | 136 | 337 | 9.84 |
| C=CC(=O)N1CC2(CCN(c3nc4c(c(-c5ccc(F)cc5F)c3C#N)CCN(C(C)C)C4)[C@H]2C)C1 [Example 21-18, 4-(2,4-difluorophenyl)-2-((5S)-5-methyl-2-(2-propenoyl)-2,6-diazaspiro[3.4]octan-6-yl)-7-(2-propanyl)-5,6,7,8-tetrahydro-1,7-naphthyridine-3-carbonitrile] | 853 | 2820 | 10.2 |
| C=CC(=O)N1CC2(CCN(c3nc4c(c(-c5ccccc5F)c3C#N)CCN(c3ncc(C)s3)C4)C2)C1 [Example 21-20, 4-(2-fluorophenyl)-7-(5-methyl-1,3-thiazol-2-yl)-2-(2-(2-propenoyl)-2.6-diazaspiro[3.4]octan-6-yl)-5,6,7,8-tetrahydro-1,7-naphthyridine-3-carbonitrile] | 973 | 5250 | 9.88 |
| C=CC(=O)N1CC2(CCN(c3nc4c(c(-c5ccccc5F)c3C#N)CCN(c3ccncc3C)C4)C2)C1 [Example 21-21, 4-(2-fluorophenyl)-7-(3-methyl-4-pyridinyl)-2-(2-(2-propenoyl)-2,6-diazaspiro[3.4]octan-6-yl)-5,6,7,8-tetrahydro-1,7-naphthyridine-3-carbonitrile] | 442 | > 5000 | > 5 |
| C=CC(=O)N1CC2(CCN(c3nc4c(c(-c5ccccc5F)c3C#N)CCN(CC3CCCN3C)C4)C2)C1 [Example 21-29, 4-(2-fluorophenyl)-7-(((2R)-1-methyl-2-pyrrolidinyl)methyl)-2-(2-(2-propenoyl)-2,6-diazaspiro[3.4]octan-6-yl)-5,6,7,8-tetrahydro-1,7-naphthyridine-3-carbonitrile 4-(2-fluorophenyl)-7-(((2S)-1-methyl-2-pyrrolidinyl)methyl)-2-(2-(2-propenoyl)-2,6-diazaspiro[3.4]octan-6-yl)-5,6,7,8-tetrahydro-1,7-naphthyridine-3-carbonitrile] | 822 | 4410 | > 25 |

Other lines, results leading:

| IC50 (KRAS G12C) [nM] | IC50 [1] [nM] | IC50 [2] [µM] | SMILES |
| --- | --- | --- | --- |
| 57 | 454 | 3.98 | C=CC(=O)N1CC2(CCN(c3nc4c(c(-c5ccccc5F)c3C#N)CCN(c3scnc3C)[C@@H]4C)C2)C1 [Example 21-5, (8R)-4-(2-fluorophenyl)-8-methyl-7-(4-methyl-1,3-thiazol-5-yl)-2-(2-(2-propenoyl)-2,6-diazaspiro[3.4]octan-6-yl)-5,6,7,8-tetrahydro-1,7-naphthyridine-3-carbonitrile] |
| 930 | 4570 | 11.2 | C=CC(=O)N1CC2(CCN(c3nc4c(c(-c5ccccc5F)c3C#N)CCN(c3scnc3C)[C@H]4C)C2)C1 [Example 21-6, (8S)-4-(2-fluorophenyl)-8-methyl-7-(4-methyl-1,3-thiazol-5-yl)-2-(2-(2-propenoyl)-2,6-diazaspiro[3.4]octan-6-yl)-5,6,7,8-tetrahydro-1,7-naphthyridine-3-carbonitrile] |
| 264 | > 5000 | > 5 | C=CC(=O)N1CC2(CCN(c3nc4c(c(-c5cc(O)ccc5Cl)c3C#N)CCN(C(C)C)C4)C2)C1 [Example 21-9, 4-(2-chloro-5-hydroxyphenyl)-7-(2-propanyl)-2-(2-(2-propenoyl)-2,6-diazaspiro[3.4]octan-6-yl)-5,6,7,8-tetrahydro-1,7-naphthyridine-3-carbonitrile] |
| 33 | 633 | 4.41 | C=CC(=O)N1CC2(CCN(c3nc4c(c(-c5ccccc5Cl)c3C#N)CCN(c3scnc3C)C4)C2)C1 [Example 21-11] |
| 393 | 5400 | > 25 | C=CC(=O)N1CC2(CCN(c3nc4c(c(-c5cc(O)ccc5Cl)c3C#N)CN(Cc3scnc3C)C4)C2)C1 [Example 21-12, 4-(2-chloro-5-hydroxyphenyl)-6-((4-methyl-1,3-thiazol-5-yl)methyl)-2-(2-(2-propenoyl)-2,6-diazaspiro[3.4]octan-6-yl)-6,7-dihydro-5H-pyrrolo[3,4-b]pyridine-3-carbonitrile] |
| 14 | 1070 | > 5 | C=CC(=O)N1CC2(CCN(c3nc4c(c(-c5cc(O)ccc5Cl)c3C#N)CCN(c3scnc3C)C4)C2)C1 [Example 21-13, 4-(2-chloro-5-hydroxyphenyl)-7-(4-methyl-1,3-thiazol-5-yl)-2-(2-(2-propenoyl)-2,6-diazaspiro[3.4]octan-6-yl)-5,6,7,8-tetrahydro-1,7-naphthyridine-3-carbonitrile] |
| 220 | > 5000 | > 5 | C=CC(=O)N1CC2(CCN(c3nc4c(c(-c5cc(O)ccc5F)c3C#N)CCN(C(C)C)C4)C2)C1 [Example 21-15, 4-(2-fluoro-5-hydroxyphenyl)-7-(2-propanyl)-2-(2-(2-propenoyl)-2,6-diazaspiro[3.4]octan-6-yl)-5,6,7,8-tetrahydro-1,7-naphthyridine-3-carbonitrile] |
| 35 | 1170 | > 5 | C=CC(=O)N1CC2(CCN(c3nc4c(c(-c5cc(O)ccc5F)c3C#N)CCN(c3scnc3C)C4)C2)C1 [Example 21-19, 4-(2-fluoro-5-hydroxyphenyl)-7-(4-methyl-1,3-thiazol-5-yl)-2-(2-(2-propenoyl)-2.6-diazaspiro[3.4]octan-6-yl)-5,6,7,8-tetrahydro-1,7-naphthyridine-3-carbonitrile] |
| 334 | 337 | 18.4 | C=CC(=O)N1CC2(CCN(c3nc4c(c(-c5cc(O)ccc5Cl)c3C#N)C3CCC4N(C(C)C)C3)C2)C1 (stereo not drawn) [Example 21-26] |
| 918 | 2990 | 16.5 | C=CC(=O)N1CC2(CCN(c3nc4c(c(-c5ccc(F)cc5F)c3C#N)CCN(C(C)C)C4)C2)C1 [Example 21-27, 4-(2,4-difluorophenyl)-7-(2-propanyl)-2-(2-(2-propenoyl)-2,6-diazaspiro[3.4]octan-6-yl)-5,6,7,8-tetrahydro-1,7-naphthyridine-3-carbonitrile] |
| 473 | 314 | > 25 | C=CC(=O)N1CC2(CCN(c3nc4c(c(-c5cc(O)ccc5Cl)c3C#N)CCN(C[C@@H]3CCCN3C)C4)C2)C1 [Example 21-28, 4-(2-chloro-5-hydroxyphenyl)-7-(((2S)-1-methyl-2-pyrrolidinyl)methyl)-2-(2-(2-propenoyl)-2,6-diazaspiro[3.4]octan-6-yl)-5,6,7,8-tetrahydro-1,7-naphthyridine-3-carbonitrile] |
